Experimental data published in patent US11325938B2, “CD73 inhibitors” (ORIC Pharmaceuticals, Inc., priority 2018, dated 2022).

The molecules below were run against CD73 (Homo sapiens (Human), UniProt P21589) (assay: Biochemical assay: inhibition of CD73 activity (AMP hydrolysis, Malachite Green readout)). Conditions: CD73 0.3208 nM, AMP 15 μM, 25 mM Tris-HCl pH 7.4, RT, absorbance 620 nm.
Procedure, shortened: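 Human CD73 (320 pM final) preincubated 15 min at RT with compounds (10-point ½-log titration from 100 μM, duplicates) in 25 mM Tris-HCl pH 7.4, 5 mM MgCl2, 0.01% Brij-35, 0.01% BSA. 15 μM AMP added, 10 min at RT; released phosphate read by Malachite Green absorbance; IC50 determined.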

Sequence of CD73 (P21589 27-574): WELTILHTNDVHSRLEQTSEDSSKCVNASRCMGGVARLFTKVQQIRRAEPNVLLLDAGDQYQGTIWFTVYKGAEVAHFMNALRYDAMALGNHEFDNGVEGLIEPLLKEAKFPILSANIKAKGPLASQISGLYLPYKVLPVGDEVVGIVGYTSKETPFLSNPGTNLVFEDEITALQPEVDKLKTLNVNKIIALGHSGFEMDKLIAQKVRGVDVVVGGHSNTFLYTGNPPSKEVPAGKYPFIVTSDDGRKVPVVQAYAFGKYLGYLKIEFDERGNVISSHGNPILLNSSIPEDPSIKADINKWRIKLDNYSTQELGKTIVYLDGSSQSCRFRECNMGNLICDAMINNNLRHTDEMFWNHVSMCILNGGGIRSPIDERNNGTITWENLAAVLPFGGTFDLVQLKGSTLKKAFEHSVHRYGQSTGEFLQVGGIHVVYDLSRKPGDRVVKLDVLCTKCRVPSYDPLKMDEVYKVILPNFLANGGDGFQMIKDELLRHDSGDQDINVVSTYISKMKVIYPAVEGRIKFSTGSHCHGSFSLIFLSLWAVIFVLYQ

Row | Structure (SMILES) | IC50 [nM]
1 | C[C@H](P(=O)(O)O)S(=O)(=O)C[C@H]1O[C@@H](n2ncc3c(NC4CCCC4)nc(Cl)nc32)[C@H](O)[C@@H]1O [Example 7, ((R)-1-((((2S,3S,4R,5R)-5-(6-Chloro-4-(cyclopentylamino)-1H-pyrazolo[3,4-d]pyrimidin-1-yl)-3,4-dihydroxytetrahydrofuran-2-yl)methyl)sulfonyl)ethyl)phosphonic acid] | ≤ 100
2 | COCC(OC[C@H]1O[C@@H](n2cnc3c(NC4CCCC4)nc(Cl)nc32)[C@H](O)[C@@H]1O)P(=O)(O)O (stereo partly drawn) [Example 160, (1-(((2R,3S,4R,5R)-5-(2-chloro-6-(cyclopentylamino)-9H-purin-9-yl)-3,4-dihydroxytetrahydrofuran-2-yl)methoxy)-2-methoxyethyl)phosphonic acid] | ≤ 100
3 | COCC(C)(OC[C@H]1O[C@@H](n2ncc3c(NC4CCCC4)nc(CO)nc32)[C@H](O)[C@@H]1O)P(=O)(O)O (stereo partly drawn) [Example 90, (2-(((2R,3S,4R,5R)-5-(4-(Cyclopentylamino)-6-(hydroxymethyl)-1H-pyrazolo[3,4-d]pyrimidin-1-yl)-3,4-dihydroxytetrahydrofuran-2-yl)methoxy)-1-methoxypropan-2-yl)phosphonic acid] | ≤ 100

More lines, now with the values ahead:

Row | IC50 [nM] | Structure (SMILES)
4 | ≤ 100 | O=P(O)(O)C(CO)(COCC(F)(F)F)OC[C@H]1O[C@@H](n2ncc3c(NC4CCCC4)nc(Cl)nc32)[C@H](O)[C@@H]1O (stereo partly drawn) [Example 95, (2-(((2R,3S,4R,5R)-5-(6-chloro-4-(cyclopentylamino)-1H-pyrazolo[3,4-d]pyrimidin-1-yl)-3,4-dihydroxytetrahydrofuran-2-yl)methoxy)-1-hydroxy-3-(2,2,2-trifluoroethoxy)propan-2-yl)phosphonic acid]
5 | ≤ 100 | COC[C@](C)(OC[C@H]1O[C@@H](n2nnc3c(NC4CCCC4)cc(Cl)nc32)[C@H](O)[C@@H]1O)P(=O)(O)O [Example 148, ((R)-2-(((2R,3S,4R,5R)-5-(5-chloro-7-(cyclopentylamino)-3H-[1,2,3]triazolo[4,5-b]pyridin-3-yl)-3,4-dihydroxytetrahydrofuran-2-yl)methoxy)-1-methoxypropan-2-yl)phosphonic acid]
6 | ≤ 100 | O=P(O)(O)COC[C@H]1O[C@@H](n2nnc3c(NCc4cccc(Cl)c4)cc(Cl)nc32)[C@H](O)[C@@H]1O [Example 22, ((((2R,3S,4R,5R)-5-(5-chloro-7-((3-chlorobenzyl)amino)-3H-[1,2,3]triazolo[4,5-b]pyridin-3-yl)-3,4-dihydroxytetrahydrofuran-2-yl)methoxy)methyl)phosphonic acid]
7 | ≤ 100 | O=P(O)(O)C(CO)(CO)OC[C@H]1O[C@@H](n2ncc3c(NC4CCC45CCC5)nc(Cl)nc32)[C@H](O)[C@@H]1O (mixture of isomers) [Example 204, rac-(2-(((2R,3S,4R,5R)-5-(6-chloro-4-(spiro[3.3]heptan-1-ylamino)-1H-pyrazolo[3,4-d]pyrimidin-1-yl)-3,4-dihydroxytetrahydrofuran-2-yl)methoxy)-1,3-dihydroxypropoan-2-yl)phosphonic acid]
